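48-hour exposure; five concentrations; linearly interpolated endpoints. The concentration for full growth arrest is given as TGI.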
Experiments:
Assay in all cases: NCI tumour cell line growth inhibition, 48 h
A549 NSCLC = test system: A549 NSCLC
DLD-1 colon = test system: DLD-1 colon
DMS 114 small cell lung = test system: DMS 114 small cell lung
DMS 273 small cell lung = test system: DMS 273 small cell lung
KM20L2 colon = test system: KM20L2 colon
NCI-H460 lung = test system: NCI-H460 lung
OVCAR-3 ovarian = test system: OVCAR-3 ovarian
OVCAR-5 ovarian = test system: OVCAR-5 ovarian
P388/ADR leukemia = test system: P388/ADR leukemia
SF-268 CNS = test system: SF-268 CNS
SNB-75 CNS = test system: SNB-75 CNS
SNB-78 CNS = test system: SNB-78 CNS
UACC-62 melanoma = test system: UACC-62 melanoma
XF 498 CNS = test system: XF 498 CNS
ACHN renal = test system: ACHN renal
M14 melanoma = test system: M14 melanoma
MDA-MB-231 breast = test system: MDA-MB-231 breast
PC-3 prostate = test system: PC-3 prostate

SMILES | TGI (A549 NSCLC) | TGI (DLD-1 colon) | TGI (DMS 114 small cell lung) | TGI (DMS 273 small cell lung) | TGI (KM20L2 colon) | TGI (NCI-H460 lung) | TGI (OVCAR-3 ovarian) | TGI (OVCAR-5 ovarian) | TGI (P388/ADR leukemia) | TGI (SF-268 CNS) | TGI (SNB-75 CNS) | TGI (SNB-78 CNS) | TGI (UACC-62 melanoma) | TGI (XF 498 CNS) | TGI (ACHN renal) | TGI (M14 melanoma) | TGI (MDA-MB-231 breast) | TGI (PC-3 prostate)
Nc1nc2c(c(=O)[nH]1)N(C=O)C(CNc1ccc(C(=O)N[C@@H](CCC(=O)O)C(=O)O)cc1)CN2 (stereo partly drawn) | > 125 µM | > 125 µM | > 125 µM | > 125 µM | > 125 µM | > 125 µM | > 125 µM | > 125 µM | > 125 µM | > 125 µM | > 125 µM | > 125 µM | > 125 µM | – | – | – | – | –
C/C(=N\NS(=O)(=O)c1ccccc1)c1ccccc1 | > 100 µM | > 100 µM | > 100 µM | > 100 µM | > 100 µM | > 100 µM | > 100 µM | > 100 µM | > 100 µM | > 100 µM | > 100 µM | > 100 µM | > 100 µM | > 100 µM | – | – | – | –
COC1=C(N=[N+]=[N-])C(=O)c2ncccc2C1=O | 32.1 µM | 3.14 µM | 19.6 µM | 25.7 µM | 33 µM | 32.6 µM | 15.5 µM | 33.8 µM | – | 28.5 µM | 26 µM | 12.7 µM | 20.8 µM | 16.4 µM | 15 µM | 8.66 µM | 25 µM | 29 µM
C=CC1ON(Cc2ccccc2)CCc2cc(OC)c(OC)cc21 (stereo not drawn) | > 100 µM | – | – | – | – | > 100 µM | > 100 µM | > 100 µM | – | > 100 µM | > 100 µM | – | > 100 µM | – | > 100 µM | > 100 µM | > 100 µM | > 100 µM
[Se]=P(c1ccccc1)(c1ccccc1)c1ccc(C(c2ccccc2)=P(c2ccccc2)(c2ccccc2)c2ccccc2)cc1 | 13 µM | – | – | – | – | 10.9 µM | 4.22 µM | 18.7 µM | – | 9.26 µM | 3.49 µM | – | 3.85 µM | – | 8.06 µM | 24.5 µM | 7.33 µM | 9.34 µM
O=C(NCCC(F)(F)C(F)(F)C(F)(F)C(F)(F)F)NC1OC(CO)C(O)C(O)C1O (stereo not drawn) | > 100 µM | – | – | – | – | > 100 µM | > 100 µM | > 100 µM | – | > 100 µM | > 100 µM | – | > 100 µM | – | > 100 µM | > 100 µM | > 100 µM | > 100 µM
O=C(CN1CCN(Cc2ccccc2)CC1)N1CCCn2c1nc1ccccc1c2=O | > 100 µM | – | – | – | – | > 100 µM | > 100 µM | > 100 µM | – | > 100 µM | > 100 µM | – | > 100 µM | – | > 100 µM | > 100 µM | > 100 µM | > 100 µM
Clc1ccc(Cc2nc3ccc(CCN4CCN(c5ccccc5)CC4)cc3[nH]2)cc1 | 33 µM | – | – | – | – | 27.8 µM | 27 µM | 66.4 µM | – | > 100 µM | 38.3 µM | – | 33.6 µM | – | > 100 µM | 19.2 µM | 27.3 µM | > 100 µM
CC1(C)[C@@H](Cn2cnc3c(N)ncnc32)CC[C@@]1(C)CO | > 100 µM | – | – | – | – | > 100 µM | > 100 µM | > 100 µM | – | > 100 µM | > 100 µM | – | > 100 µM | – | > 100 µM | > 100 µM | > 100 µM | > 100 µM
O=C1O/C(=C(\Br)c2cccc3ccccc23)c2ccccc21 | 35.9 µM | > 66.7 µM | > 48.4 µM | > 54.9 µM | > 59.5 µM | > 73 µM | > 57.2 µM | > 54.9 µM | – | > 55.7 µM | > 87.2 µM | > 100 µM | > 55.6 µM | – | > 55.1 µM | > 62.8 µM | – | –
Cc1cc(O)c2c(c1O)C(=O)C13C(=C2O)C(=O)C2C(O)C1C1C(O)C3C(=O)C3=C(O)c4c(O)cc(C)c(O)c4C(=O)C321 (stereo not drawn) | 1.08 µM | – | – | 0.621 µM | > 100 µM | – | – | 9.41 µM | 0.144 µM | 0.458 µM | 0.841 µM | 0.722 µM | – | 0.504 µM | – | – | – | –

Source: PubChem BioAssay (NCI)
